Results from ChEMBL document CHEMBL5244258, “PROTACs: New method to degrade transcription regulating proteins” (Eur J Med Chem, 2020).

Key:
[1] = biological target: von Hippel-Lindau disease tumor suppressor/Steroid hormone receptor ERR1 (Homo sapiens) (UniProt P11474+P40337); assay: Protac activity at VHL/ERRalpha in human MCF7 cells assessed as maximum efficacy relative to control; assay type: cell-based
[2] = biological target: T1, von Hippel-Lindau disease tumor suppressor/Estrogen receptor (Homo sapiens, UniProt P03372+P40337); assay: Protac activity at ER/VHL (unknown origin) degradation in human MCF7 cells by immunoblotting analysis; assay type: cell-based
Target sequence in this assay (P40337 whole entry, one chain of several): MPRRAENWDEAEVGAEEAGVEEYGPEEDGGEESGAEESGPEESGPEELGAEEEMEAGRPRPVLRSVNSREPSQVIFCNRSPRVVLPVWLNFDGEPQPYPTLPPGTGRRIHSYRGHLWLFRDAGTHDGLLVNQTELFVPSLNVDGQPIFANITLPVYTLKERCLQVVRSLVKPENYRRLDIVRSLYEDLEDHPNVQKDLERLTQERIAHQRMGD

[3] = biological target: T1, von Hippel-Lindau disease tumor suppressor/Estrogen receptor; assay: Protac activity at ER/VHL (unknown origin) degradation in human MCF7 cells assessed as maximum efficacy by immunoblotting analysis relative to control; assay type: cell-based
Target sequence in this assay (P40337 whole entry, looked up, one chain of several): as the sequence (P40337 whole entry, one chain of several) above

[4] = biological target: T2, von Hippel-Lindau disease tumor suppressor/Bromodomain-containing protein 4 (Homo sapiens, UniProt O60885+P40337); assay: Protac activity at BRD4/VHL (unknown origin) assessed as maximum efficacy relative to control
T2 sequence (P40337 whole entry, looked up, other chains not shown): as the sequence (P40337 whole entry, one chain of several) above

[5] = biological target: T2, von Hippel-Lindau disease tumor suppressor/Bromodomain-containing protein 4; assay: Protac activity at BRD4/VHL (unknown origin)
[6] = test system: HCT-116; assay: Antiproliferative activity against human HCT-116 cells assessed as reduction in cell viability measured for 48 hrs by MTT assay; assay type: functional
[7] = biological target: T3, Bromodomain-containing protein 2 (Homo sapiens, UniProt P25440); assay: Induction of BRD2 degradation (unknown origin) relative to control
[8] = biological target: T3, Bromodomain-containing protein 2; assay: Induction of BRD2 degradation (unknown origin)
[9] = biological target: T4, Androgen receptor (Homo sapiens) (UniProt P10275); assay: Induction of AR degradation in human HeLa cells assessed as maximum efficacy at 3 nM relative to control; assay type: cell-based
T4 sequence (whole entry): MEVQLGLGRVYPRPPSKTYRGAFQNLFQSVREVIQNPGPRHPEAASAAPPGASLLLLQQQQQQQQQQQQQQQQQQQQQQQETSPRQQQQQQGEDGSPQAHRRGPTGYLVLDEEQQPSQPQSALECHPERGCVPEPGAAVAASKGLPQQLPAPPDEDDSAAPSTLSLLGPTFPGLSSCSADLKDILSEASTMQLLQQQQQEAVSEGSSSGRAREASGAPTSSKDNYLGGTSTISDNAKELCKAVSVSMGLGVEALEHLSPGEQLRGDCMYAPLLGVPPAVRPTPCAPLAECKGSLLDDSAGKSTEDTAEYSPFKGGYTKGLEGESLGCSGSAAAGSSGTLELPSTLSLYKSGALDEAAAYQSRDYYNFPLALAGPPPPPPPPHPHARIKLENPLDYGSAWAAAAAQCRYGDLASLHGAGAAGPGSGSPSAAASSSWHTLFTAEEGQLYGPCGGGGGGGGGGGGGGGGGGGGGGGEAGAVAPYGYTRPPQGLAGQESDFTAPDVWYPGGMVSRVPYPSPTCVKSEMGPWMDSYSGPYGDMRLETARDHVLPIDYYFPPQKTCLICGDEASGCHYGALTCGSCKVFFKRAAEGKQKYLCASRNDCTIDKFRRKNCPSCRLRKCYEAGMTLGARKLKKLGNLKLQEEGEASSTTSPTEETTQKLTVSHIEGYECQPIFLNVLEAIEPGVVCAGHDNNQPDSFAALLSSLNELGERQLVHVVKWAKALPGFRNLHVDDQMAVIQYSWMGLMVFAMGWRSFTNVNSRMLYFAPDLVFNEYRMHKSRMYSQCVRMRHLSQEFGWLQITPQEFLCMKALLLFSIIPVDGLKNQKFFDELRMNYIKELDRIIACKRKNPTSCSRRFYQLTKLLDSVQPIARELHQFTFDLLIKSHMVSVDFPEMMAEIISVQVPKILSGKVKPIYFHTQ

[10] = biological target: T4, Androgen receptor (Homo sapiens); assay: Induction of AR degradation in human HeLa cells assessed as maximum efficacy at 100 nM relative to control; assay type: cell-based
[11] = biological target: T5, Estrogen receptor (Homo sapiens, UniProt P03372); assay: Induction of estrogen receptor degradation in human MCF7; assay type: cell-based
T5 sequence (P03372 whole entry): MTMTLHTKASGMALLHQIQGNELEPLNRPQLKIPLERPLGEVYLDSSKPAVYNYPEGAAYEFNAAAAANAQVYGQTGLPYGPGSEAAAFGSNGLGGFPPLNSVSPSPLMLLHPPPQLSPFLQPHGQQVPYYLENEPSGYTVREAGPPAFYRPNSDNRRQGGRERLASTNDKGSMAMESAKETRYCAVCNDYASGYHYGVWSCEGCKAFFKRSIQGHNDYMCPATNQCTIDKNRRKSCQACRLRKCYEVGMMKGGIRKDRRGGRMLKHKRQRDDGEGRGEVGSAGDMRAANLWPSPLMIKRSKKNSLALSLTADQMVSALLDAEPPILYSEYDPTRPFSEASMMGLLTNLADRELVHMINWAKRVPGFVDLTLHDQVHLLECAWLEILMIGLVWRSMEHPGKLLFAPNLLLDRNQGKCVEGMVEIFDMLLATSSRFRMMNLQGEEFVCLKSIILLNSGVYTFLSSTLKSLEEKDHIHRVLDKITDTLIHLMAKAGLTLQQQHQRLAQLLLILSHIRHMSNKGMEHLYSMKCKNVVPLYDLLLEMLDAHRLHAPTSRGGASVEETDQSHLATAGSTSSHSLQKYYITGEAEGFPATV

[12] = biological target: T6, Estrogen receptor (Homo sapiens) (UniProt P03372); assay: Induction of estrogen receptor degradation in human MCF7 cells assessed as maximum efficacy relative to control; assay type: cell-based
T6 sequence (whole entry): T5 sequence (P03372 whole entry)

[13] = biological target: von Hippel-Lindau disease tumor suppressor/SWI/SNF-related matrix-associated actin-dependent regulator of chromatin subfamily A member 4 (Homo sapiens, UniProt P51532+P40337); assay: PROTAC activity at SMARCA4/VHL in human MV4-11 cells assessed as degradation of SMARCA4 measured for 24 hrs by Western blot analysis; assay type: cell-based
von Hippel-Lindau disease tumor suppressor/SWI/SNF-related matrix-associated actin-dependent regulator of chromatin subfamily A member 4, sequence (P51532 whole entry): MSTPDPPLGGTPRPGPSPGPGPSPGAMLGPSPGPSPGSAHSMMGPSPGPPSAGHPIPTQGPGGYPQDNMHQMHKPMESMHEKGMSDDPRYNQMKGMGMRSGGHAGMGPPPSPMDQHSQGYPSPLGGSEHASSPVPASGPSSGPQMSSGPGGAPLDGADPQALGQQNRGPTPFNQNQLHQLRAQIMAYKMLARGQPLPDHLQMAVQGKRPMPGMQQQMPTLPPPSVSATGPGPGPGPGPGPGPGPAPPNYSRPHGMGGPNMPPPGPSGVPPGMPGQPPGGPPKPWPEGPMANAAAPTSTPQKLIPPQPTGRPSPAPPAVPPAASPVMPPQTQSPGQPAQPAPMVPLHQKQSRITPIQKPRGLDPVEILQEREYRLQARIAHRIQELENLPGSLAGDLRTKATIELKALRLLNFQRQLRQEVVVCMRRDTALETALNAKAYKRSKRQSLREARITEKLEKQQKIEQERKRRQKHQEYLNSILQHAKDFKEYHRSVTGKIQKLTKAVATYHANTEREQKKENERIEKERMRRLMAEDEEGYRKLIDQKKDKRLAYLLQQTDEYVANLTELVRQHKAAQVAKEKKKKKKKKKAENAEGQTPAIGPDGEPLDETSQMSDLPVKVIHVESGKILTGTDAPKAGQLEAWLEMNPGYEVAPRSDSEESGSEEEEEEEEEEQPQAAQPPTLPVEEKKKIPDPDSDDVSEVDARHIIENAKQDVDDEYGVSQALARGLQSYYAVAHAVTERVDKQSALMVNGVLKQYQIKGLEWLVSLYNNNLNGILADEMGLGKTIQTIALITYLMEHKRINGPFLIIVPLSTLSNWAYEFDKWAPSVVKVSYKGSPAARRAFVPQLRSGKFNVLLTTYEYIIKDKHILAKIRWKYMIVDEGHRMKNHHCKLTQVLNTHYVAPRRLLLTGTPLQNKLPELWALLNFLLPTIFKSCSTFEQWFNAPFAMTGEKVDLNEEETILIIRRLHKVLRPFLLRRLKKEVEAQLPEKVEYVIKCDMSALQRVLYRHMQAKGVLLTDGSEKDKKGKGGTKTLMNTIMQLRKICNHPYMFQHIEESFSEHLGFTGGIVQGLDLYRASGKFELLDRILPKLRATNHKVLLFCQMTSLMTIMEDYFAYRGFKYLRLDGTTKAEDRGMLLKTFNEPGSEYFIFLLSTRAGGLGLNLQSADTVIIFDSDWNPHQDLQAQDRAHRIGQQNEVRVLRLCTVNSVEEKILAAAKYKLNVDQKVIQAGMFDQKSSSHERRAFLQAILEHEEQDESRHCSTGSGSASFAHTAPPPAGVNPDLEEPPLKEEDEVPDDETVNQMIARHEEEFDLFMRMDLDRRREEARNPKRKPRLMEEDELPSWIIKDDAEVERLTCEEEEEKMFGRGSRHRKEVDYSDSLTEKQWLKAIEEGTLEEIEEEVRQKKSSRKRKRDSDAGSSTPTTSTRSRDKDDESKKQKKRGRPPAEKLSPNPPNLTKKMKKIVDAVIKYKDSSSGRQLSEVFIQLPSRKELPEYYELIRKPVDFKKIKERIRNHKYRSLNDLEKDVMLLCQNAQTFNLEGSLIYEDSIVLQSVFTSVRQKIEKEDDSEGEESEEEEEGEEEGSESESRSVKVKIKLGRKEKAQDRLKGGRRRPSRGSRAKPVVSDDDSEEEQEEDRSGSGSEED
von Hippel-Lindau disease tumor suppressor/SWI/SNF-related matrix-associated actin-dependent regulator of chromatin subfamily A member 4, sequence (P40337 whole entry): as the sequence (P40337 whole entry, one chain of several) above

[14] = biological target: T7, von Hippel-Lindau disease tumor suppressor/SWI/SNF-related matrix-associated actin-dependent regulator of chromatin subfamily A member 2 (Homo sapiens, UniProt P51531+P40337); assay: PROTAC activity at SMARCA2/VHL in human MV4-11 cells assessed as degradation of SMARCA2 measured for 24 hrs by Western blot analysis relative to control; assay type: cell-based
[15] = biological target: T7, von Hippel-Lindau disease tumor suppressor/SWI/SNF-related matrix-associated actin-dependent regulator of chromatin subfamily A member 2; assay: PROTAC activity at SMARCA2/VHL in human MV4-11 cells assessed as degradation of SMARCA2 by Western blot analysis; assay type: cell-based
Target sequence in this assay (P51531 whole entry): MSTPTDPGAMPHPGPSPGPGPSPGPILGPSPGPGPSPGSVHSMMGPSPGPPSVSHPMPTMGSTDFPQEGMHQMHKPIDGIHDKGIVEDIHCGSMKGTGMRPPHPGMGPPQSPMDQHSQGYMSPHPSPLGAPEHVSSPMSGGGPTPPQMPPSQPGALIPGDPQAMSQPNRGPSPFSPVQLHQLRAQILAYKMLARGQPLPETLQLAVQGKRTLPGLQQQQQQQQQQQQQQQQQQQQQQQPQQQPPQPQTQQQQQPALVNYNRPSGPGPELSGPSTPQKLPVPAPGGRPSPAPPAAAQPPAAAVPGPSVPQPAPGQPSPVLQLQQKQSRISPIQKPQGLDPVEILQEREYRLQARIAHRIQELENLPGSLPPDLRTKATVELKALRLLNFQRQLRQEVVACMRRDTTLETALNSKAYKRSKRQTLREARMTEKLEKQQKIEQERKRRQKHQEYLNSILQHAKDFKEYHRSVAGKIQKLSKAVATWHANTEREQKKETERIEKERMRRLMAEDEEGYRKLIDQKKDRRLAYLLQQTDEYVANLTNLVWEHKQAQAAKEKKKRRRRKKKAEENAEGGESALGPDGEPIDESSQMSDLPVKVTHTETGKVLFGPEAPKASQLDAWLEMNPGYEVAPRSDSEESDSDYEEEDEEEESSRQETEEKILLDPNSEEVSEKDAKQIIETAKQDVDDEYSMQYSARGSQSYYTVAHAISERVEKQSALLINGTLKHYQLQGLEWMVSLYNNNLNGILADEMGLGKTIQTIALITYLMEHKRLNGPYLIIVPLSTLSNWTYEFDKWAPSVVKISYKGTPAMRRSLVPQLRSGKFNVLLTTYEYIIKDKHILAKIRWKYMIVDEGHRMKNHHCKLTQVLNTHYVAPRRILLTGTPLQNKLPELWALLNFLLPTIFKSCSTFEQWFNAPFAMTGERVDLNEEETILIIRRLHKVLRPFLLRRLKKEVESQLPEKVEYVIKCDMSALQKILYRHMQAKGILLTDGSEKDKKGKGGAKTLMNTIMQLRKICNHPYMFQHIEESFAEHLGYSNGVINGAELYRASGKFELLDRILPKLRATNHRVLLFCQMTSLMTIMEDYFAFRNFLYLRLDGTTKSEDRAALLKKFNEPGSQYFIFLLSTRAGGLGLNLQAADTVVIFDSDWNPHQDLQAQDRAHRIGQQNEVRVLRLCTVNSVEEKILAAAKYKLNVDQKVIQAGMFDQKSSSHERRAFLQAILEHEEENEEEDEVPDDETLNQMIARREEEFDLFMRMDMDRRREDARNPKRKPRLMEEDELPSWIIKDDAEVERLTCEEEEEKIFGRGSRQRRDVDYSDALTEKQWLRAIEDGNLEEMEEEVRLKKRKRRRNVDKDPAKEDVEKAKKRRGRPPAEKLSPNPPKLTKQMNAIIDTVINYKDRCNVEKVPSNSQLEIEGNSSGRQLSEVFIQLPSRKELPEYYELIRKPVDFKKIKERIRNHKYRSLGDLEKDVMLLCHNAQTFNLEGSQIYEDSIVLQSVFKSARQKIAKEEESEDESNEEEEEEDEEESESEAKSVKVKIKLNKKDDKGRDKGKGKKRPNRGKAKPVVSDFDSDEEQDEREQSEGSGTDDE
Target sequence in this assay (P40337 whole entry): as the sequence (P40337 whole entry, one chain of several) above

[16] = biological target: T7, von Hippel-Lindau disease tumor suppressor/SWI/SNF-related matrix-associated actin-dependent regulator of chromatin subfamily A member 2; assay: PROTAC activity at SMARCA2/VHL in human MV4-11 cells assessed as degradation of SMARCA2 measured for 24 hrs by Western blot analysis; assay type: cell-based
Target sequence in this assay (P51531 whole entry): as the sequence (P51531 whole entry) above
Target sequence in this assay (P40337 whole entry): as the sequence (P40337 whole entry, one chain of several) above

[17] = test system: MV4-11; assay: Antiproliferative activity against human MV4-11 cells assessed as growth inhibition; assay type: functional, cell-based
[18] = biological target: T8, Androgen receptor (Homo sapiens, UniProt P10275); assay: Induction of AR degradation in human HeLa cells; assay type: cell-based
T8 sequence (P10275 whole entry): T4 sequence (whole entry)

[19] = biological target: T2, von Hippel-Lindau disease tumor suppressor/Bromodomain-containing protein 4; assay: Protac activity at VHL/BRD4 in human HeLa cells assessed as BRD4 degradation at 1 uM by Western blot analysis relative to control; assay type: cell-based
[20] = biological target: T2, von Hippel-Lindau disease tumor suppressor/Bromodomain-containing protein 4; assay: Protac activity at VHL/BRD4 in human HeLa cells assessed as BRD4 degradation by Western blot analysis relative to control; assay type: cell-based
[21] = biological target: Bromodomain-containing protein 4 (Homo sapiens) (UniProt O60885); assay: Induction of BRD4 degradation in human HeLa cells assessed as maximum efficacy at 1 uM relative to control; assay type: cell-based

von Hippel-Lindau disease tumor suppressor/Steroid hormone receptor ERR1 (Homo sapiens), sequence (P11474 whole entry, looked up): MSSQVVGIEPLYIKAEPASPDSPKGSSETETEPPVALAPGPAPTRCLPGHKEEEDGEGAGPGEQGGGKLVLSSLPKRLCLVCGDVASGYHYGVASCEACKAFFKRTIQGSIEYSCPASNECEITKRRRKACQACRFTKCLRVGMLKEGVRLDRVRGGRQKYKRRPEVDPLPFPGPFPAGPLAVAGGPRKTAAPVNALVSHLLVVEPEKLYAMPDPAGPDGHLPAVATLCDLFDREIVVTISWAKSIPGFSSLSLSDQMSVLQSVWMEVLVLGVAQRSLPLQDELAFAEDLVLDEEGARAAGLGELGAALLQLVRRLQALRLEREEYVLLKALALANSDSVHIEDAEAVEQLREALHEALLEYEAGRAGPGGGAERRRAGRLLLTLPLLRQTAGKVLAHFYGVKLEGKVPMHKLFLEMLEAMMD
von Hippel-Lindau disease tumor suppressor/Steroid hormone receptor ERR1 (Homo sapiens), sequence (P40337 whole entry, looked up): as the sequence (P40337 whole entry, one chain of several) above

Q: For COc1cc(/C=C2\SC(=O)N(CCOCCC(=O)N[C@H](C(=O)N3C[C@H](O)C[C@H]3C(=O)NCc3ccc(-c4scnc4C)cc3)C(C)(C)C)C2=O)ccc1Oc1ccc(C#N)cc1C(F)(F)F, which Emax [1] is on record?
A: > 86%

Q: And the DC50 [2]?
A: 100 nM

Q: And the Emax [3]?
A: 86%

Q: Which results are given for CC(=O)N[C@H](C(=O)N1C[C@@H](O)C[C@H]1C(=O)NCc1ccc(-c2scnc2C)cc1)C(C)(C)SCCCCCNC(=O)C[C@@H]1N=C(c2ccc(Cl)cc2)c2c(sc(C)c2C)-n2c(C)nnc21?
A: Emax [4]: > 90%; DC50 [5]: 10 nM

Q: With COc1cc(C(=O)O)ccc1NC(=O)[C@@H]1N[C@@H](CC(C)(C)C)[C@](C#N)(c2ccc(Cl)cc2F)[C@H]1c1cccc(Cl)c1F [IDASANUTLIN] as the compound, how does the Activity [6] read?
A: 64%

Q: For Cc1ncsc1-c1ccc([C@H](C)NC(=O)[C@@H]2C[C@@H](O)CN2C(=O)[C@@H](NC(=O)COCCCOCCNC(=O)C[C@@H]2N=C(c3ccc(Cl)cc3)c3c(sc(C)c3C)-n3c(C)nnc32)C(C)(C)C)cc1, which Emax [4] is on record?
A: > 50%

Q: And the Emax [7]?
A: > 90%

Q: What about the DC50 [8] of the same compound?
A: < 1 nM

Q: For CC/C(=C(\c1ccc(O)cc1)c1ccc(OCCN(C)C(=O)COCCOCCOCCOc2cccc(C(=O)c3csc([C@@H]4CCCN4C(=O)[C@@H](NC(=O)[C@H](C)NC)C4CCCCC4)n3)c2)cc1)c1ccccc1, which Emax [9] is on record?
A: 50%

Q: And the Emax [10]?
A: > 70%

Q: And the DC50 [11]?
A: 1000 nM

Q: What about the Emax [12] of the same compound?
A: > 70%

Q: How did the DC50 [13] turn out when Cc1ncsc1-c1ccc(CNC(=O)[C@@H]2C[C@@H](O)CN2C(=O)[C@@H](NC(=O)C2(F)CC2)C(C)(C)C)c(OCCOc2ccc(CN3CCN(c4cc(-c5ccccc5O)nnc4N)CC3)cc2)c1 was run?
A: 11 nM

Q: What about the Emax [14] of the same compound?
A: 100%

Q: What about the DC50 [15] of the same compound?
A: 6 nM

Q: And the DC50 [16]?
A: 6 nM

Q: What about the IC50 [17] of the same compound?
A: 28 nM

Q: For COc1ccc(C2=N[C@H](c3ccc(Cl)cc3)[C@H](c3ccc(Cl)cc3)N2C(=O)N2CCN(CC(=O)NCCOCCOCCOCC(=O)Nc3ccc(OC[C@](C)(O)C(=O)Nc4ccc([N+](=O)[O-])c(C(F)(F)F)c4)cc3)C(=O)C2)c(OC(C)C)c1, which DC50 [18] is on record?
A: 10000 nM

Q: With CC/C(=C(\c1ccc(O)cc1)c1ccc(OCCN(C)C(=O)COCCOCCOCCOc2ccc(O[C@H]3C[C@@H](C(=O)N[C@@H]4CCCc5ccccc54)N(C(=O)[C@@H](NC(=O)[C@H](C)NC)C4CCCCC4)C3)cc2)cc1)c1ccccc1 as the compound, how does the Emax [10] read?
A: > 70%

Q: What about the DC50 [11] of the same compound?
A: 1000 nM

Q: And the Emax [12]?
A: > 80%

Q: How did the Activity [19] turn out when Cc1ncsc1-c1ccc(CNC(=O)[C@@H]2C[C@@H](O)CN2C(=O)[C@@H](NC(=O)COCCOCCOCCNC(=O)C[C@@H]2N=C(c3ccc(Cl)cc3)c3c(sc(C)c3C)-n3c(C)nnc32)C(C)(C)C)cc1 was run?
A: 90%

Q: And the Emax [4]?
A: > 90%

Q: And the Emax [20]?
A: > 90%

Q: What about the Emax [21] of the same compound?
A: > 90%
